Assay results published in article PMC11356839, “The Synthesis of SNAC Phenolate Salts and the Effect on Oral Bioavailability of Semaglutide” (Molecules, 2024).

Experiments:
[1] = dogs, semaglutide formulated with SNAC tablet; cited from earlier work
Excerpt: The professional literature has contained studies concerning the mechanism of SNAC to enhance permeability. […] SNAC increases lipophilicity of the formulation and causes a local increase in pH via a buffering action.

[2] = rat, in vivo
Description: All compounds are powders.
IV solution was prepared by dissolving semaglutide in water containing disodium phosphate (0.014% w/v), propylene glycol (0.144% w/v), and phenol (0.056% w/v). The solution was diluted by 3 to reach semaglutide concentration of 0.046mg/mL and filtrated by a sterile 0.22 μm syringe filter.
Pharmacokinetic study protocol: Male Wistar rats (275–300 g, Harlan, Israel) were kept under a 12 h light/dark cycle, with free access to food and water. Animals were anesthetized, and an indwelling cannula was placed into the right jugular vein for systemic blood sampling. The cannula was tunneled beneath the skin and exteriorized at the dorsal part of the neck. The animals were transferred to individual cages to recover overnight (12–18 h). Throughout the experiments, free access to food was available 4 h post-oral administration.
Oral SNAC or salt formulations were dispersed in distilled water and then administrated by oral gavage (~1.2 mL for a rat to get semaglutide dose of 12 mg/kg). Blood samples (0.36 mL) were obtained by intravenous cannula, placed into the jugular vein. In the case of oral administration, samples were taken at 5 min pre-dose intervals and at different time points post-dose, according to the pharmacokinetic profile (no more than 10% of rat blood volume was drawn). To prevent dehydration, physiological solutions were administered, following each blood sampling. Plasma was separated by centrifugation (4000 rpm, 7 min, 4 °C) and stored at −20 °C until use.
Plasma samples were analyzed by a developed LC-MS method for semaglutide.
Absolute bioavailability values and other pharmacokinetic observations were assessed by comparison to intravenous bolus of semaglutide.
Semaglutide in plasma was performed in an Eppendorf® tube by mixing 150 μL of the plasma sample with 150 μL acetonitrile (ACN) and 15 μL of 5% formic acid (FA) and vortexed for 5 min. The tube was centrifuged at 15 °C, 6000 rpm for 6 min. Then, 160 μL of the supernatant was collected in a new tube. A second extraction was performed for the remaining precipitant by adding 60 μL of 5% FA, followed by mixing and centrifugation. Supernatant, 50 μL, was transferred into a tube. The solvent was evaporated to dryness, reconstituted with 50 μL 5% FA, and analyzed by an LC-MS system. Semaglutide standards were prepared by spiking semaglutide solutions in 5% FA into plasma to obtain final concentrations of 1–0.005 μg/mL. The same extraction procedure was performed on the standards as well.
MS/MS analyses were determined on a Sciex (Framingham, MA, USA) QTRAP® 6500^+ mass spectrometer). The chromatography analysis was performed using reverse-phase conditions using a Shimadzu (Kyoto, Japan) UHPLC System, consisting of a Shimadzu CBM-20A communication bus module, Nexera X2 LC-30AD pump, including a Shimadzu DGU-20A5R degasser, a Shimadzu SIL-30AC autosampler, and a Shimadzu CTO-20AC column oven. Liquid chromatography separation was obtained using 10 μL injections of samples onto an XBridge Peptide BEH C18 column (3.5 µm 300Å, 50 × 2.1 mm) from Waters Corp. (Milford, MA, USA), protected by a SecurityGuard™ (Phenomenex, Torrance, CA, USA) cartridge (C18, 2 × 2.1 mm). The column was maintained at 40 °C during the entire analysis. Gradient elution mobile phases consisted of 0.1% formic acid in water (Phase A) and 0.1% formic acid in methanol (Phase B). A flow rate of 0.2 mL/min was applied with a linear gradient from 60% to 80% B over 3.5 min and then held at 80% B for additional 4.5 min. The column was then equilibrated for 6 min at starting conditions prior to the injection of the next sample. The gradient elution program (0.2 mL/min) is described in Table 1.

[3] = clinical study, cited from earlier work
Excerpt: Preclinical studies reached similar conclusions, although with slightly different values. It is important to remember that the study model, as well as the specific drug being investigated, plays a role in the results, as the drug’s properties and size also affect its absorption. Semaglutide, being ...

Molecule: CC[C@H](C)[C@H](NC(=O)[C@H](Cc1ccccc1)NC(=O)[C@H](CCC(=O)O)NC(=O)[C@H](CCCCNC(=O)COCCOCCNC(=O)COCCOCCNC(=O)CC[C@H](NC(=O)CCCCCCCCCCCCCCCCC(=O)O)C(=O)O)NC(=O)[C@H](C)NC(=O)[C@H](C)NC(=O)[C@H](CCC(N)=O)NC(=O)CNC(=O)[C@H](CCC(=O)O)NC(=O)[C@H](CC(C)C)NC(=O)[C@H](Cc1ccc(O)cc1)NC(=O)[C@H](CO)NC(=O)[C@H](CO)NC(=O)[C@@H](NC(=O)[C@H](CC(=O)O)NC(=O)[C@H](CO)NC(=O)[C@@H](NC(=O)[C@H](Cc1ccccc1)NC(=O)[C@@H](NC(=O)CNC(=O)[C@H](CCC(=O)O)NC(=O)C(C)(C)NC(=O)[C@@H](N)Cc1cnc[nH]1)[C@@H](C)O)[C@@H](C)O)C(C)C)C(=O)N[C@@H](C)C(=O)N[C@@H](Cc1c[nH]c2ccccc12)C(=O)N[C@@H](CC(C)C)C(=O)N[C@H](C(=O)N[C@@H](CCCNC(=N)N)C(=O)NCC(=O)N[C@@H](CCCNC(=N)N)C(=O)NCC(=O)O)C(C)C [semaglutide, Semaglutide]
- semaglutide concentration underneath the tablet compared to 6 cm at a further distance [1]: 10 fold
- semaglutide absorption after oral administration not including SNACs [2]: negligible semaglutide absorption

Molecule: SNAC–phosphatidylcholine [PC]
- AUC0−8 ([2]; po, 12 mg/kg): 5083 ± 1478 ng·h/mL
- AUC0−∞ ([2]; po, 12 mg/kg): 7729 ± 2928 ng·h/mL
- Cmax ([2]; po, 12 mg/kg): 945 ± 295 ng/mL
- fold increase in AUC0−8 over the original SNAC formulation ([2]; po, 12 mg/kg): ~ 3 fold
- fold increase in AUC0−∞ over the original SNAC formulation ([2]; po, 12 mg/kg): ~ 4 fold
- fold increase in F% over the original SNAC formulation ([2]; po, 12 mg/kg): ~ 4 fold

Molecule: vitamin B12
- absolute absorption, formulation with SNAC ([3]; oral vitamin B12 affected by SNAC): 5%
- absolute absorption, commercial product ([3]; oral vitamin B12 commercial product): 2%
